Patent US4423071A, “Polyol derivatives, processes for preparing the same and their uses in therapeutics” (Sanofi, priority 1979, dated 1983)
Entries after “also recorded” stand apart in the source; their conditions may differ. Read-outs that look alike come from different tables or passages of the source.

Legend:
[1] = test system: Pentylenetetrazol-induced seizure; experiment: Pentylenetetrazol-induced seizure (anticonvulsant action); format: in vivo; settings: rats, oral, ester 600 mg/kg, acid 100 mg/kg, pentylenetetrazol 125 mg/kg i.p.
Method: The results of trials performed with such di-n-propylacetyl derivatives in order to determine the anticonvulsant action are set out below.
The anticonvulsant action was determined using pentylenetetrazol as convulsant agent.
Batches of 10 rats were treated by oral route with a dose of 600 mg/kg of glyceryl 1-(di-n-propylacetate).
At various times after administration, the animals received an intraperitoneal dose of 125 mg/kg of pentylenetetrazol.
The percentage of protection against the convulsive seizure was then determined at each of the times in question.
A similar trial was carried out with 100 mg/kg of di-n-propylacetic acid.
This dose represents the amount of di-n-propylacetic acid required to provide a di-n-propylacetic acid blood-level equivalent to the maximum level obtained with 600 mg/kg of glyceryl 1-(di-n-propylacetate). The results obtained are given in the following Table in which are shown the percentage of protection achieved at the various times indicated: […]

[2] = design: species or system humans; settings: in vivo
Method: FIG. 8: represents blood-levels in di-n-propylacetic acid obtained from:
(a) An oral dose of 600 mg of glyceryl 1-(di-n-propylacetate) (Curve 1)
(b) An oral dose of 476 mg of glyceryl 1,2-bis-(-di-n-propylacetate) (Curve 2)
(c) An oral dose of 460 mg of sodium di-n-propylacetate (Curve 3)
FIG. 9: represents the blood-levels in di-n-propylacetic acid obtained from the oral administration of 1000 mg of glyceryl 1,2-bis-(di-n-propylacetate) every 24 hours for 4 days.
FIG. 10: represents the blood-levels in di-n-propylacetic acid obtained from:
(a) An oral dose of 1000 mg of mixtures of glyceryl 1,2-bis-(di-n-propylacetate)/glyceryl 1,3-bis-(di-n-propylacetate)
("Mixtures A and B" referred to above) (Curves 1 to 5)
(b) An oral dose of 1000 mg of sodium di-n-propylacetate (Curve 6)
FIG. 11: represents the blood-levels in di-n-propylacetic acid obtained from an oral dose of 1000 mg of 1,2-propanediol bis-(di-n-propylacetate).

[3] = Pharmacokinetic trials with animals (species not specified), release of parent acid; format: in vivo, animal
[4] = design: species or system rats; settings: rat, in vivo, po, 600 mg/kg
Method: The first series of drawings represent blood-levels in acid of formula I above in relation to time, this acid being either released from a salt thereof or from an ester of the invention.
FIG. 1: represents blood-levels in di-n-propylacetic acid obtained from:
(a) An oral dose to rats of 600 mg/kg of either: glyceryl 1-(di-n-propylacetate) (Curve 1) or glyceryl 1,2-bis-(di-n-propylacetate) (Curve 2) or glyceryl 1,3-bis-(di-n-propylacetate) (Curve 3)
(b) An intravenous dose to rats of 200 mg/kg of sodium di-n-propylacetate (Curve 4) […] FIG. 6: represents blood-levels in di-n-propylacetic acid obtained from: […]
(b) An intravenous dose to rats of 200 mg/kg of sodium di-n-propylacetate (Curve 3) FIG. 7: represents blood-levels in di-n-propylacetic acid obtained from:
1,4-butanediol bis-(di-n-propylacetate) (Curve 1) or 2-buten-1,4-diol bis-(di-n-propylacetate) (cis isomer) (Curve 2) or 2-butyn-1,4-diol bis-(di-n-propylacetate) (Curve 3)

[5] = Acute toxicity tests in rats; settings: rat, in vivo; rats, oral route
Source text: (§1) The results of acute toxicity tests obtained with compounds of the invention are given below:

[6] = Acute toxicity tests in mice; settings: mouse, in vivo, oral route
[7] = test system: Chronic cobalt-induced epilepsy; experiment: Chronic cobalt-induced epilepsy; format: in vivo, rats; settings: 14 days i.p., sodium salt 2 x 200 mg/kg daily, Mixture A 400 mg/kg daily
Method: This trial was performed in comparison with sodium di-n-propylacetate. Batches of rats were given for 14 days either two daily intraperitoneal doses of 200 mg/kg (morning and evening) of sodium di-n-propylacetate or a daily intraperitoneal dose of 400 mg/kg (evening) of a mixture of glyceryl 1,2- and 1,3-bis-(di-n-propylacetates) ("Mixture A").

rats = experiment: Acute toxicity tests in rats; settings: rat, in vivo
Source text: as §1

[8] = in vivo; cited from earlier work

Row | Structure (SMILES) | percentage of protection against the convulsive seizure ([1]; 0.5 h) [%] | percentage of protection against the convulsive seizure ([1]; 1 h) [%] | percentage of protection against the convulsive seizure ([1]; 2 h) [%] | percentage of protection against the convulsive seizure ([1]; 4 h) [%] | percentage of protection against the convulsive seizure ([1]; 8 h) [%] | percentage of protection against the convulsive seizure ([1]; 16 h) [%] | slow-release of di-n-propylacetic acid in the human body ([2]; po) | release of di-n-propylacetic acid in the animal organism [3] | LD50 [5] [mg/kg] | LD50 [6] [mg/kg] | further results
1 | CCCC(CCC)C(=O)O [di-n-propylacetic acid, reference compound] | 23 | 0 | 0 | 0 | 0 | 0 |  |  |  |  | 
2 | CCCC(CCC)C(=O)OCC(O)COC(=O)C(CCC)CCC [glyceryl 1,3-bis-(di-n-propylacetate), Glyceryl 1,3-bis-(di-n-propylacetate)] |  |  |  |  |  |  | can provide the slow-release of di-n-propylacetic acid in the human body to a degree which enables therapeutic blood-levels in this acid to be attained | possess the requisite qualities to enable di-n-propylacetic acid to be released in the animal organism at a decreasing rate |  |  | bioavailability compared with the 1,2-diester [2]: better bioavailability than that of the corresponding 1,2-diester; blood-levels in di-n-propylacetic acid compared with the 1,2-diester [2]: Very similar results
3 | CCCC(CCC)C(=O)OCC(O)CO (stereo not shown) [glyceryl 1-(di-n-propylacetate), Glyceryl 1-(di-n-propylacetate)] | 29 | 56 | 41 | 43 | 35 | 22 | quite unable to induce a slow-release in di-n-propylacetic acid in the blood | possess the requisite qualities to enable di-n-propylacetic acid to be released in the animal organism at a decreasing rate | 2360 | 3360 | blood-levels in di-n-propylacetic acid (FIG. 1) [4]: resists the rapid elimination of this acid and maintains a high blood-level in this acid; metabolism to glycerol and di-n-propylacetic acid [2]: too rapid
4 | CCCC(CCC)C(=O)[O-].[Na+] [sodium di-n-propylacetate, reference compound] |  |  |  |  |  |  |  |  | 1530 | 1700 | Number of seizures between the 7th and 14th day ([7]; controls 3.57): 1.25; Number of rats presenting at least one seizure ([7]; controls 7/7): 3/4; apparent half-life of di-n-propylacetic acid ([2]; human, po): 11 h 35 min h min
5 | CCCC(CCC)C(=O)OCC(CO)OC(=O)C(CCC)CCC (stereo not shown) [glyceryl 1,2-bis-(di-n-propylacetate), Glyceryl 1,2-bis-(di-n-propylacetate)] |  |  |  |  |  |  | can provide the slow-release of di-n-propylacetic acid in the human body to a degree which enables therapeutic blood-levels in this acid to be attained | possess the requisite qualities to enable di-n-propylacetic acid to be released in the animal organism at a decreasing rate |  |  | LD0 (rats; ip): > 2000 mg/kg; LD0 (rats; po): > 5000 mg/kg
6 | CCCC(CCC)C(=O)OCC(COC(=O)C(CCC)CCC)OC(=O)C(CCC)CCC [glyceryl tri-(di-n-propylacetate)] |  |  |  |  |  |  |  |  |  |  | bioavailability [4]: poor bioavailability; maximum blood-levels in di-n-propylacetic acid [4]: ≤ 10 µg/mL; time until di-n-propylacetic acid appeared in the blood [4]: ≥ 150 min; value as a slow-release form of di-n-propylacetic acid [4]: of no value as a slow-release form of di-n-propylacetic acid; bioavailability ([2]; po): poor bioavailability; slow-release properties as reported in the literature [8]: a remarkably useful substance which has all the properties expected of a slow-release preparation; also recorded: can act as a slow-release form of di-n-propylacetic acid
